Data published in article PMC9132363 (Journal of Medicinal Chemistry, 2022).

Columns and labels:
SOD1-ALS lymphoblasts = assay: NRF2 pathway in SOD1-ALS lymphoblasts; format: cell-based, human; settings: 20 μM, 24 h
Text: (§1) Peripheral blood samples of all the individuals enrolled in this study were collected after written informed consent of the patients or their relatives (demographic information is presented in Table 9) to establish the lymphoblastoid cell lines (LCLs), by infecting peripheral blood lymphocytes with the Epstein–Barr virus (EBV), as previously described.[68] Participants or their relatives gave written informed consent. This study was approved by the Hospital Doce de Octubre and the Spanish Council of Higher Research Institutional Review Boards. All patients were diagnosed by applying the revised El Escorial criteria.[69] […] Genetic testing for SOD1, TARDBP, FUS, and C9ORF72 was performed in all cases.
(§2) LCLs were grown in suspensions in T flasks, in an RPMI-1640 medium containing 2 mM L-glutamine, 100 μg/mL streptomycin/penicillin, and 10% (v/v) fetal bovine serum (FBS) and maintained in a humidified 5% CO2 incubator at 37 °C.
(§3) Whole cell lysates were prepared in RIPA-buffer (25 mM Tris-HCl, pH 7.6, 150 mM NaCl, 1 mM EGTA, 1% Igepal, 1% sodium deoxycholate, 0.1% SDS, 1 mM PSMF, 1 mM Na3VO4, 1 mM NaF, 1 μg/mL aprotinin, 1 μg/mL leupeptin, and 1 μg/mL pepstatin). […] Immunoblots were analyzed as described previously.[48] […]
(§4) Total RNA extraction, reverse transcription, and quantitative polymerase chain reaction (PCR) were done as detailed in previous articles.[72] […]

[1] = system: HMOX1/HO-1 and NQO1 in SH-SY5Y cells; assay: NRF2 signature (qRT-PCR and immunoblot) in SH-SY5Y cells; format: cell-based
Protocol: Whole cell lysates were prepared in RIPA-buffer (25 mM Tris-HCl, pH 7.6, 150 mM NaCl, 1 mM EGTA, 1% Igepal, 1% sodium deoxycholate, 0.1% SDS, 1 mM PSMF, 1 mM Na3VO4, 1 mM NaF, 1 μg/mL aprotinin, 1 μg/mL leupeptin, and 1 μg/mL pepstatin). Whole cell lysates, cytosolic and nuclear fractions containing 25 μg of whole proteins from SH-SY5Y, or lymphoblast-treated cells were loaded for SDS-PAGE electrophoresis. Immunoblots were analyzed as described previously.[48] The primary antibodies used are described in Supporting Information Table S4.
Total RNA extraction, reverse transcription, and quantitative polymerase chain reaction (PCR) were done as detailed in previous articles.[72] Primer sequences are shown in Supporting Information Table S5. Data analysis was based on the ΔΔCT method with normalization of the raw data to housekeeping genes (Applied Biosystems). All PCRs were performed in triplicates.

HEK293T cells = assay: MTT viability assay; format: cell-based, human; settings: 20 µM, Table S3
Protocol: (§5) HEK293T cells were plated in 24-well culture plates (75,000 cells/well) and incubated in a CO2 incubator. The next day, treatment was given according to the experimental requirement. Sixteen hours later, 50 μL of MTT solutions from the stock (5 mg/mL) was added, and cells were incubated in a CO2 incubator in the dark for 2 h. The medium was removed, and formazan crystals formed by the cells were dissolved using 500 μL of DMSO followed by transfer in 96-well plates. The absorbance was read at a 570 nm wavelength on a multiwell plate reader.[70]

MTT viability assay = format: cell-based, human; settings: human, HEK293T cells, HEK293T, 16 h, read-out: Cell viability (MTT)
Protocol: as §5

GSK-3β = GSK-3β (Homo sapiens, UniProt P49841); assay: GSK-3β kinase inhibition; format: biochemical
GSK-3β, sequence (P49841 whole entry, species assumed): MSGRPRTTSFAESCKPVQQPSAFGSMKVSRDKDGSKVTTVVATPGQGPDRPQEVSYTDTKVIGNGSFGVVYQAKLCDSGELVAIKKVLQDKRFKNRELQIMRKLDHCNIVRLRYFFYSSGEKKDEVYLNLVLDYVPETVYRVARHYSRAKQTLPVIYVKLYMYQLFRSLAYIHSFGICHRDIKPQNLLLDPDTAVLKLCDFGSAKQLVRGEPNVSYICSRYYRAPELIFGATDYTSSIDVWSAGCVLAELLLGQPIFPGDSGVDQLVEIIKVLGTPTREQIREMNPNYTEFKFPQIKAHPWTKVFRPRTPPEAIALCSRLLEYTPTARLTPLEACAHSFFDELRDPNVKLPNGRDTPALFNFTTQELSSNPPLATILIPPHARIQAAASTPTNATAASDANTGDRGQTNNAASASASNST

control lymphoblasts = assay: NRF2 pathway in control lymphoblasts; format: cell-based, human; settings: 20 μM, 24 h
Text: as §1, §2, §3, §4

[2] = DPPH radical scavenging assay; format: physicochemical
Protocol: The antioxidant activity was determined by the 2,2-diphenyl-1-picrylhydrazyl hydrate (DPPH) assay.[65]−[67] All the measurements were performed in an 80% MeOH solution, with the final reaction volume being 3 mL. A stock of DPPH solution in DMSO (10^–2 M) was prepared and stored at −20 °C, and the same procedure was performed with the antioxidant solution. Then, the DPPH stock solution was diluted to 2 mL with a final concentration of 150 μM (final volume of 3 mL and final concentration of 100 μM). The antioxidant stock was sequentially diluted to 1 mL at 3, 9, 30, 90, and 300 μM (final volume of 3 mL and final concentrations of 1, 3, 10, 30, and 100 μM). The mixture was incubated at room temperature for 30 min. Once this time had passed, the absorbance was measured in a spectrophotometer at 517 nm. Trolox, caffeic acid, and ferulic acid were used as a standard (1, 3, 10, 30, and 100 μM final concentrations). A blank using 80% MeOH solution instead of the corresponding antioxidant was used in each assay. Two independent measurements of each sample were performed. Data were processed using Origin software, and sigmoidal fitting according to the DoseResp function was performed to extrapolate the IC50 (μM) of each antioxidant.

[3] = target: human serum albumin (HSA) (Homo sapiens, UniProt P02768); assay: biochemical
human serum albumin (HSA), sequence (P02768 25-609): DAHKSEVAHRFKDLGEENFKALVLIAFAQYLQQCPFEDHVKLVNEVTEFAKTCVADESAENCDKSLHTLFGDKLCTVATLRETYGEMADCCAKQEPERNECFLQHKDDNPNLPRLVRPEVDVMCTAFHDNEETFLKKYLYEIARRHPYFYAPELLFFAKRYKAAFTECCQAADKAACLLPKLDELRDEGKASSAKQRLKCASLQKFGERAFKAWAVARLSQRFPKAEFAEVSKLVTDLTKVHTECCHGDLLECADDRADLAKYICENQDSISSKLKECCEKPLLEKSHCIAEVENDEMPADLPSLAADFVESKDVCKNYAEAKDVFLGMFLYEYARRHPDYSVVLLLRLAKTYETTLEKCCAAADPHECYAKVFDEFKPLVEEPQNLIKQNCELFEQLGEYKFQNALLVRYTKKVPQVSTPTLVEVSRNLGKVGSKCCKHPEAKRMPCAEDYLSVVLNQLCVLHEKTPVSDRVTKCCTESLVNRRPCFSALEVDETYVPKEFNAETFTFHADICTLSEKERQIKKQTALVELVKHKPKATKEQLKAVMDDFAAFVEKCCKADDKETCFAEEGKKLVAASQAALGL
Protocol: After each addition, the mixture was incubated at rt for 5 min, and then, the emission fluorescence spectra of HAS (λ = 280 nm) were measured using a Fluorometer Max-4P (Horiba Jobin Yvon). The data obtained were further processed using the Stern–Volmer and Scatchard models in GraphPad Prism 8.0 software.

[4] = system: TDP-43 in lymphoblasts from ALS patients; assay: TDP-43 phosphorylation and expression in lymphoblasts (immunoblot); format: cell-based, human; settings: 20 µM, 24 hours
Protocol: Figure S1. Lack of effect of compound 1d against aberrant TDP-43 phosphorylation in sporadic ALS and […]
Representative immunoblot showing the phosphorylation status of TDP-43 in immortalized lymphocytes from control and sporadic ALS individuals. Cells were seeded at an initial density of 1 x 106 x ml-1 in the absence or presence of compound 1d (20 µM). 24 hours after compound addition, cells were harvested and processed for Western blotting analysis. The plot in the left panel (a) represents the quantification of the bands of 43 KD of pTDP-43 normalized by total-TDP-43. The densitometric analyses represent the mean ± SEM of different observations carried […]
43 expression (b) in lymphoblasts from ALS patients.
(1 picture or pasted object on this page, not shown here)

activity as an inhibitor of the kinase GSK-3β (GSK-3β): negative results
EC50 ([2]; 80% MeOH, 30 min, 517 nm, read-out: Radical scavenging activity EC50 (DPPH method)): 9.68 µM
IC50 ([2]; supplementary CSV): 10.4 ± 0.7 µM
Kd [3]: 1.26 µM
Structure (SMILES): O=C(CCc1ccc(O)c(O)c1)N1CCCN(S(=O)(=O)c2cccc3cnccc23)CC1 [Compound 1d, 3-(3,4-Dihydroxyphenyl)-1-(4-(isoquinolin-5-ylsulfonyl)-1,4-diazepan-1-yl)propan-1-one]
HMOX1 and NQO1 levels (mRNA and protein) (SOD1-ALS lymphoblasts): capable of inducing HMOX1 and NQO1 levels in a very significant way
mRNA levels of HMOX1 and NQO1 ([1]; 20 μM, 4, 8 and 24 h): increased the mRNA levels
protein levels of HO-1 and NQO1 ([1]; 20 μM, maximum after 24 h): increase in the protein levels
MTT (%) (HEK293T cells): < 20%
viability at 16 h, 20 µM (MTT viability assay; 20 μM): 100 ± 1.02%
viability at 16 h, 60 µM (MTT viability assay; 60 μM): 103.7 ± 0.837%
NEF2L2 mRNA levels (control lymphoblasts): did not produce changes
levels of the NRF2 protein (control lymphoblasts): significantly increased
ability to reduce TDP-43 expression [4]: negative results
ability to reduce aberrant TDP-43 phosphorylation [4]: negative results
